Source: PMC7311950, “Potent Tetrahydroquinolone Eliminates Apicomplexan Parasites” (Frontiers in Cellular and Infection Microbiology, 2020)

Key:
CYP450 2C9 = CYP450 2C9 (Homo sapiens, UniProt P11712); assay: CYP450 inhibition, 2C9; type: in vitro ADME
bovine cytochrome bc1 = target: T1, bovine cytochrome bc1 (Bos taurus, UniProt P00157); assay: Bovine cytochrome bc1 activity assay; type: biochemical; conditions: read-out: Bovine Cytbc1 activity inhibition
T1 construct: Whole fresh bovine heart was collected after slaughter and transported in ice; from tissue; host or cells: bovine heart mitochondria; DDM-solubilised, DEAE-Sepharose and Sephacryl-S300 purified
Description: Bovine cytochrome bc1 inhibition assay was carried out in 50 mM KPi pH 7.5, 2 mM EDTA, 10 mM KCN, 30 μM equine heart cytochrome c (Sigma Aldrich), and 2.5 nM bovine cytochrome bc1 at room temperature. 20 mM inhibitors dissolved in DMSO were added to the assay at a desired concentration without prior incubation. […] The reaction was initiated by the addition of 50 μM decylubiquinol (Abcam). The reduced cytochrome c was monitored by the different absorption between 550 and 542 nm using extinction coefficient of 18.1 mM^−1 cm^−1 in a SPECTRAmax Plus 384 UV-visible Spectrometer. The initial kinetic rate is determined as a zero-order reaction and used as the specific activity of cytochrome bc1.

[1] = tested on: Human Foreskin Fibroblast (HFF); assay: Cytotoxicity assay, WST-1 cell proliferation reagent on HFF; type: cell-based; conditions: Homo sapiens, Fibroblast; supplement summary
Description: Toxicity assays used WST-1 cell proliferation reagent (Roche) as in Fomovska et al. ([2012a]). HFF were grown on a flat, clear-bottomed, black 96-well plate. Confluent HFF were treated with inhibitory compounds at concentrations of 10 and 50 μM. Compounds were diluted in IMDM-C, and 20 μL were added to each designated well, with triplicates for each condition. A gradient with 2-folddecreasing concentrations of DMSO from 10 to 0% in colorless, translucent IMDM-C was used as a control. The plate was incubated for 72 h at 37°C. Ten microlitre WST-1 reagent (Roche) were added to each well. Cells were incubated for 30–60 min. Absorbance was read using a fluorimeter at 420 nm. A higher degree of color change (and absorbance) indicated mitochondrial activity and cell viability.

P. berghei sporozoites = assay: P. berghei causal prophylaxis in vivo model; set-up: species or system Plasmodium berghei; conditions: oral nanoformulation, single dose 2.5 mg/kg day 0 or 3 doses 0.625 mg/kg days −1, 0, +1; C57BL/6 albino mice
Source text: P. berghei sporozoites were obtained from laboratory-reared female Anopheles stephensi mosquitoes which were maintained at 18 degrees C for 17–22 days after feeding on a luciferase expressing P. berghei infected Swiss CD1ICR. Using a dissecting microscope, the salivary glands were extracted from malaria-infected mosquitoes and sporozoites were obtained. Briefly, mosquitoes were separated into head/thorax and abdomen. Thoraxes and heads were triturated with a mortar and pestle and suspended in medium RPMI 1640 containing 1% C57BL/6 mouse serum (Rockland Co, Gilbertsville, PA, USA). […] They were stained with a vital dye containing fluorescein diacetate (50 mg/mL in acetone) and ethidium bromide (20 μg/mL in phosphate buffered saline; Sigma Chemical Co, St. Louis, MO, USA) and counted in a hemocytometer to ensure that inoculated sporozoites were viable following the isolation procedure. […]
Animals were dosed with experimental compounds based on body weight. […] To insure the size of the compounds in the dosing solution were under […], the suspension was homogenized using a homogenizer (PRO Scientific Inc, Monroe, CT, USA) with a 10 mm open-slotted generator running at 20,000–22,000 rpm for 5 min in an ice bath. […] Stability beyond that time was not determined. […]

[2] = tested on: T. gondii RH-YFP tachyzoites; assay: Synergy studies with RH strain YFP tachyzoites; type: cell-based, Toxoplasma gondii
Description: Atovaquone and pyrimethamine were used to test whether they are synergistic with JAG21. Serial dilutions of the combination of JAG21 and either atovaquone or pyrimethamine were used in an in vitro challenge assay as described above. The EC50 of each compound and the combination of two compounds were determined. The effect of the combination of drugs was calculated with the following formula:C= [A]c/[A]a+[B]c/[B]a. If C is lower than 1, the two compounds tested have synergistic effect; if C is >1, the two compounds tested have antagonist effect and if C is 1 they are additive.

Chain of CYP450 2C9 (P11712 whole entry): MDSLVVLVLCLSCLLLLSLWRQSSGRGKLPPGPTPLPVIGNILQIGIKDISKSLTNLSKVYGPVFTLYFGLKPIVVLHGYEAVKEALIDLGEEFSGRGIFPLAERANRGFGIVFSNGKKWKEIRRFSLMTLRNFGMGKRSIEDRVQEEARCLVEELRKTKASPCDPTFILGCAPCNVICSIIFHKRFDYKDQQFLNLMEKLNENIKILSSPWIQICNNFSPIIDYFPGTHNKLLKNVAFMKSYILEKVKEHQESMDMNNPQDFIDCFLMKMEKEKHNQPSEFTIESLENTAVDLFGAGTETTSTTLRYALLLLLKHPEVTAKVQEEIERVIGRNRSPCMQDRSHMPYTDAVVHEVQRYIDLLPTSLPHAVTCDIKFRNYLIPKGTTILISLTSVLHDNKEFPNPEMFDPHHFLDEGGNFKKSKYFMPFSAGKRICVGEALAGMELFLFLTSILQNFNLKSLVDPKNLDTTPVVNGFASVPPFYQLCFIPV

SMILES: Cc1[nH]c2c(c(=O)c1-c1ccc(Oc3ccc(OC(F)(F)F)cc3)cc1)CCCC2 [JAG21, 2-Methyl-3-(4-(4-(Trifluoromethoxy)Phenoxy)Phenyl)-5,6,7,8-Tetrahydroquinolin-4-One]
- IC50 (CYP450 2C9): 4 µM
- inhibition at 0.1 µM (bovine cytochrome bc1; 0.1 μM): 36%
- inhibition at 1 µM (bovine cytochrome bc1; 1 μM): 63%
- IC50 [1]: > 7.5 µM
- survival 30 days post infection (P. berghei sporozoites): 100%
- effect of combination with pyrimethamine ([2]; data not shown): no antagonism was observed
- effect of combination with atovaquone ([2]; isobologram): synergy
